Laboratory results from ChEMBL document CHEMBL5214987, “Scaffold hopping via ring opening enables identification of acyclic compounds as new complement Factor D inhibitors” (Bioorg Med Chem, 2022).
Values belong to the molecule of their own block, whether it stands above or below them.

Experiments:
in vitro = conditions: rabbit, rabbit erythrocytes
Description: Hemolytic activity against rabbit erythrocytes incubated for 30 mins in presence of human serum and measured by hemolysis assay

[1] = Cmax in male Sprague-Dawley rat at 10 mg/kg, po; type: ADME, organism-based; parameters: dose 10 mg/kg, route po; conditions: in vivo
[2] = Tmax in male Sprague-Dawley rat at 10 mg/kg, po; type: ADME, organism-based; conditions: in vivo
[3] = Tmax in male Sprague-Dawley rat at 2.5 mg/kg, iv; type: ADME, organism-based; conditions: in vivo
[4] = Half-life in male Sprague-Dawley rat at 10 mg/kg, po; type: ADME, organism-based; conditions: in vivo
[5] = Half-life in male Sprague-Dawley rat at 2.5 mg/kg, iv; type: ADME, organism-based; conditions: in vivo
[6] = AUC (0 to 24 hrs) in male Sprague-Dawley rat at 2.5 mg/kg, iv; type: ADME, organism-based; parameters: time < 24 hr, dose 2.5 mg/kg, route iv; conditions: in vivo
[7] = Cmax in male Sprague-Dawley rat at 2.5 mg/kg, iv; type: ADME, organism-based; parameters: dose 2.5 mg/kg, route iv; conditions: in vivo
[8] = AUC (0 to 24 hrs) in male Sprague-Dawley rat at 10 mg/kg, po; type: ADME, organism-based; parameters: time < 24 hr, dose 10 mg/kg, route po; conditions: in vivo
[9] = Initial plasma concentration in male Sprague-Dawley rat at 2.5 mg/kg, iv; type: ADME, organism-based
[10] = Volume of distribution at steady state in male Sprague-Dawley rat at 2.5 mg/kg, iv; type: ADME, organism-based; conditions: in vivo, read-out: Vdss
[11] = AUClast in male Sprague-Dawley rat at 2.5 mg/kg, iv; type: ADME, organism-based; parameters: time 0 - last, dose 2.5 mg/kg, route iv; conditions: in vivo
[12] = AUClast in male Sprague-Dawley rat at 10 mg/kg, po; type: ADME, organism-based; parameters: time 0 - last, dose 10 mg/kg, route po; conditions: in vivo
[13] = Clearance in male Sprague-Dawley rat at 2.5 mg/kg, iv; type: ADME, organism-based; conditions: in vivo
[14] = Oral bioavailability in male Sprague-Dawley rat at 10 mg/kg; type: ADME, organism-based; conditions: in vivo
[15] = MRTlast at steady state in male Sprague-Dawley rat at 2.5 mg/kg, iv; type: ADME, organism-based; conditions: in vivo
[16] = MRTlast in male Sprague-Dawley rat at 10 mg/kg, po; type: ADME, organism-based; conditions: in vivo

IC50 at 30 min (in vitro): 76 nM
Compound: NC(=O)c1nn(CC(=O)N(CC(=O)NCc2cccc(Cl)c2F)C2CC2)c2ccc(NC(=O)NC3CCCCC3)cc12

IC50 at 30 min (in vitro): 110 nM
Compound: CCN(CC)CCNC(=O)Nc1ccc2c(c1)c(C(N)=O)nn2CC(=O)N(CC(=O)NCc1cccc(Cl)c1F)C1CC1

IC50 at 30 min (in vitro): 17 nM
Compound: NC(=O)c1nn(CC(=O)N(CC(=O)NCc2cccc(Cl)c2F)C2CC2)c2ccc(NC(=O)N3CCCC(F)(F)C3)cc12

IC50 at 30 min (in vitro): 73 nM
Compound: CC(C)(C)NC(=O)Nc1ccc2c(c1)c(C(N)=O)nn2CC(=O)N(CC(=O)NCc1cccc(Cl)c1F)C1CC1

IC50 at 30 min (in vitro): 34 nM
Compound: CC(C)(C)OC(=O)Nc1ccc2c(c1)c(C(N)=O)nn2CC(=O)N(CC(=O)NCc1cccc(Cl)c1F)C1CC1

C0 [9]: 9650 ng/mL | Vd [10]: 0.3 L/kg | AUC(0-t) [11]: 3130 ng·h/mL | AUC(0-t) [12]: 209 ng·h/mL | Cmax [1]: 113 ng/mL | clearance [13]: 13.5 mL/min/kg | Tmax [2]: 30 min | bioavailability [14]: 1.7% | MRT last [15]: 21 min | half-life [4]: 69 min | half-life [5]: 24.6 min | MRT last [16]: 119 min | IC50 at 30 min (in vitro): 30 nM
Compound: CN1CCC(N(C)C(=O)Nc2ccc3c(c2)c(C(N)=O)nn3CC(=O)N(CC(=O)NCc2cccc(Cl)c2F)C2CC2)CC1

The remaining lines, values behind:

Compound: NC(=O)c1nn(CC(=O)N(CC(=O)NCc2cccc(Cl)c2F)C2CC2)c2ccc(NC(=O)N3CCN(Cc4ccc(F)cc4)CC3)cc12
IC50 at 30 min (in vitro): 17 nM

Compound: NC(=O)c1nn(CC(=O)N2CCC[C@H]2C(=O)NCc2cccc(Cl)c2F)c2ccccc12
Cmax [1]: 69.3 ng/mL | Tmax [2]: 30 min | Tmax [3]: 4.98 min | half-life [4]: 221 min | half-life [5]: 298 min | AUC(0-t) at 24 h [6]: 3410 ng·h/mL | Cmax [7]: 6740 ng/mL | AUC(0-t) at 24 h [8]: 257 ng·h/mL

Compound: COC(=O)c1ccc2c(C(N)=O)nn(CC(=O)N(CC(=O)NCc3cccc(Cl)c3F)C3CC3)c2c1
IC50 at 30 min (in vitro): 220 nM

Compound: NC(=O)c1nn(CC(=O)N(CC(=O)NCc2cccc(Cl)c2F)C2CC2)c2ccc(NC(=O)N3CCN(C4CC4)CC3)cc12
IC50 at 30 min (in vitro): 64 nM
